Results on eleven molecules are retold here after patent publication US8007737B2, “Use of antioxidants to prevent oxidation and reduce drug degradation in drug eluting medical devices” (Wyeth, priority 2004, dated 2011).

A word on the IC50: it is the point on the concentration scale where inhibition reaches its midpoint.

Data set [1] is described as follows: Drug content (% label claim) of sirolimus solutions with antioxidants, HPLC assay. The method, then: Screening experiments were performed to evaluate the solubility of various antioxidants in […] (THF) solutions containing sirolimus and the percentage of antioxidant required to prevent oxidation of sirolimus alone and in a basecoat polymeric matrix. THF is the solvent in which sirolimus may be dissolved. It is important to note that other solvents may be utilized. Two sets of controls were utilized. Control #1 comprises solutions of THF and sirolimus and/or polymers with no antioxidant, and Control #2 comprises solutions of THF and sirolimus and/or polymers, wherein the THF contains a label claim of 250 ppm of BHT as a stabilizer from the vendor of THF. In other words, the BHT is an added constituent of the THF solvent to prevent oxidation of the solvent. All percentages are given as weight/volume.
Table 11, shown below, identifies the samples for evaluation. All percentages are given as weight/volume. The samples in Table 11 contain no polymer. Table 12, also shown below, identifies the samples for evaluation with the solutions now comprising polymers, including PBMA and PEVA as described herein.
(60° C.). The samples were evaluated after five (5) days utilizing a drug testing assay for silolimus. In the exemplary embodiment, a HPLC assay was utilized.
Additional samples were tested under ambient conditions, rather than at 60° C., and using the same compositions; however, the test period was expanded to seven weeks.

Data set [2] is described as follows: Percent drug content change on coated cobalt-chromium 18 mm stent. Particulars: 0.02 weight percent BHT per total basecoat solids; 8 weeks and 12 weeks, ambient conditions (25° C.). The class given is physicochemical. The source says: Referring to FIG. 75, there is illustrated in graphical format, the results of the same drug screening as described above with the solution applied to a cobalt-chromium, 18 mm stent. In this test, two sets of solution samples were utilized, one with sirolimus and polymer solution containing the antioxidant and one with sirolimus and polymer solution containing no antioxidant. The antioxidant utilized was 0.02 weight percent BHT per total basecoat solids.
The test was utilized to determine the percent drug content change over a time period of 0 to 12 weeks under two conditions; namely, 40° C. with 75 percent relative humidity, and ambient conditions (25° C.).

Data set [3] in a line: Drug concentration in liquid formulations by liquid chromatography / HPLC. The class given is physicochemical. From the text:
In accordance with exemplary embodiments of the present invention, a series of liquid formulations were developed for the local or regional delivery of water insoluble compounds such as sirolimus and its analogs, including CCI-779, ABT-578 and everolimus, through weeping balloons and catheter injection needles. […] These liquid formulations increase the apparent solubility of the pharmacologically active but water insoluble compounds by two to four orders of magnitude as compared to the solubility limits of the compounds in water. These liquid formulations rely on the use of a very small amount of organic solvents such as Ethanol (typically less than two percent) and a larger amount of safe amphiphilic (of or relating to a molecule having a polar, water soluble group attached to a non-polar, water insoluble […]) excipients such as polyethylene glycol (PEG 200, PEG 400) and vitamin E TPGS to enhance the solubility of the compounds. These liquid formulations of highly water insoluble compounds are stable and readily flowable at room temperature. Certain excipients, such as Vitamin E TPGS and BHT may be utilized to enhance the storage stability of sirolimus compounds through their anti-oxidation properties. […]

Data set [4] deals with human smooth muscle cells. Kind of data set: Cladribine Example: PDGF-stimulated cell proliferation, cell count on day six. The class given is cell-based. Particulars: from IC50 values. The method, then: To assess the ability of cladribine to prevent cell proliferation, human smooth muscle or endothelial cells (Clonetics, Walkersville, Md.) were seeded at a density of 2000 cells/cm^2 (approximately 3600 cells/well) into each well of 12-well plates and cultured with 1.5 ml of growth medium containing five percent fetal calf serum (FCS). After twenty-four hours, the growth medium was changed and fresh medium containing 10 ng/ml platelet-derived growth factor AB (PDGF AB; LIFE Technologies), as well as various concentrations of cladribine (0.001-10,000 nM) were added with triplicate wells. Medium was replaced with fresh cladribine-containing medium after three days. On day six, cells were detached by trypsinization to yield a cell suspension, lightly centrifuged to pellet and then counted manually using a Neubauer hemocytometer system. Cell viability was assessed by trypan blue exclusion.

Data set [5] is described as follows: In vivo release kinetics from polymeric stent coatings, porcine pharmacokinetics studies.
Description: The topcoat is two hundred micro grams. […] Cladribine (2-chlorodeoxyadenosine or 2-CdA) is the 2-chloro-2′-deoxy derivative of the purine nucleoside, adenosine. Cladribine is resistant to degradation by adenosine deaminase, one of two intracellular adenine nucleotide regulatory enzymes, found in most cells. The other enzyme, 5′-nucleotidase, is present in variable amounts in different cell types (Carson et al., 1983). […] Thus, in cells such as leukocytes, which contain a high ratio (>0.04) of deoxycytidine kinase to 5′-nucleotidase, 2-CdA and its subsequent metabolites will tend to accumulate in pharmacological concentrations (Carson et al., 1983). Such high levels of a nucleoside triphosphate are known to inhibit the enzyme ribonucleotide reductase in rapidly dividing cells, thus preventing synthesis of deoxynucleotides required for DNA synthesis.
FIG. 61 is a graphical representation of the in vivo release kinetics of cladribine from a polymeric coating on Bx Velocity® stents, available from Cordis Corporation, implanted in a Yorkshire pig. […] The total weight of the topcoat is three hundred micrograms.
(§1) The basecoat is applied to Bx Velocity® stents and implanted into Yorkshire pigs.
as §1

The subject of data set [6] is human coronary artery smooth muscle cells. Kind of data set: Anti-proliferative activity in non-synchronized cultured cells stimulated with two percent fetal bovine serum. Particulars: for effect on the anti-proliferative activity of rapamycin: non-synchronized cells, mycophenolic acid zero to one thousand nanomolar, cladribine zero to nine hundred nanomolar. Format: cell-based. The source says:
The multiple curves represent various concentrations of mycophenolic acid ranging from zero to one thousand nanomolar concentrations.
FIG. 58 illustrates, in graphical format, the anti-proliferative activity of cladribine in non-synchronized cultured human coronary artery smooth muscle cells stimulated with two percent fetal bovine serum.
The multiple curves represent various concentrations of cladribine ranging from zero to nine hundred nanomolar concentrations.

For data set [7], the system named is human coronary artery smooth muscle cell survival. Particulars: concentrations up to 30,000.00 nanomolar. The source says:
In vitro cytotoxicity tests or assays may be utilized to determine if drugs, agents and/or compounds are potentially toxic and the level of toxicity. Essentially, in vitro cytotoxicity assays determine acute necrotic effects by a drug causing direct cellular damage. The idea behind these assays is that toxic chemicals affect basic functions of cells which are common to all cells. […] There are a number of different assays that may be utilized. In the present invention, the cytotoxicity assay utilized is based upon the measurement of cellular metabolic activity. A reduction in metabolic activity is an indication of cellular damage. Tests that can measure metabolic function measure cellular ATP levels or mitochondrial activity via MTS metabolism. FIG. 69 is a graphical representation of the results of an MTS assay of Panzem®.

Data set [8] deals with human coronary artery smooth muscle cells. Kind of data set: Anti-proliferative activity in synchronized cultured cells stimulated with two percent fetal bovine serum. Format: cell-based. Particulars: for effect on the anti-proliferative activity of rapamycin: topotecan zero to three hundred nanomolar, etoposide zero to eight hundred nanomolar, Panzem zero to 100 micromolar. The source says:
(§2) The multiple curves represent various concentrations of topotecan ranging from zero to three hundred nanomolar concentrations.
(§3) The multiple curves represent various concentrations of etoposide ranging from zero to eight hundred nanomolar concentrations.
The multiple curves represent various concentrations of Panzem® ranging from zero to 100 micromolar concentrations.

In data set [9] the test system is cell viability. Kind of data set: Cell viability assay. The class given is cell-based.
Description: as §2, §3

Data set [10] deals with human coronary artery smooth muscle cell proliferation. The data set is described as follows: In vitro cell culture study of coronary artery smooth muscle cell proliferation. Format: cell-based. From the text: FIG. 51 is a graph of the inhibition of coronary artery smooth muscle cells by trichostatin A in a cell culture study.
Data set [11] deals with tumor cell lines. Particulars: Woo et al. 2002; cited from earlier work.

Where two headings read alike, the source gives them in different places.

Take `O=C1O[C@H]([C@@H](O)CO)C(O)=C1O` [Ascorbic Acid]: the “protection of sirolimus against degradation” value (from here on “protection of sirolimus”) in [1] was “significant protection”.
For the molecule `Cc1cc(C(C)(C)C)c(O)c(C(C)(C)C)c1` [BHT, Butylated Hydroxytoluene], in data set [2], the “percent drug content change on stent” value is reported as “lessens drug degradation”. In [1], the “protection of sirolimus” value was “significant protection”.
In the case of `CO[C@H]1C[C@@H]2CC[C@@H](C)[C@@](O)(O2)C(=O)C(=O)N2CCCC[C@H]2C(=O)O[C@H]([C@H](C)C[C@@H]2CC[C@@H](OC(=O)C(C)(CO)CO)[C@H](OC)C2)CC(=O)[C@H](C)/C=C(\C)[C@@H](O)[C@@H](OC)C(=O)[C@H](C)C[C@H](C)/C=C/C=C/C=C/1C` [CCI-779], the “concentration in the final solution (HPLC assay)” value in data set [3] (water and ethanol (less than two percent) as co-solvents, Vitamin E TPGS as excipient) was 15 mg/mL.
Consider `Nc1nc(Cl)nc2c1ncn2[C@H]1C[C@H](O)[C@@H](CO)O1` [Cladribine, 2-chlorodeoxyadenosine], for which, in data set [4], the “potency on smooth muscle cells relative to endothelial cells” value is reported as “approximately twice as potent”. The “in vivo elution from coating relative to rapamycin” value in data set [5] (EVA/BMA basecoat, BMA topcoat, Bx Velocity stents, Yorkshire pigs) is “elutes more rapidly than rapamycin”. Also, in data set [5] (PVDF/HFP 85/15 basecoat and topcoat, Bx Velocity stents, Yorkshire pig, after the first day), the “in vivo elution from coating” value is “levels off significantly”. Also, in data set [6], the “effect on the anti-proliferative activity of rapamycin” value (“effect” below) was “increases the percent inhibition of rapamycin alone”. For the same molecule, in data set [6] (non-synchronized, two percent fetal bovine serum), the “inhibition of human coronary artery smooth muscle cell proliferation” value is “completely inhibits”.
On to `COc1cc2c(cc1O)CC[C@@H]1[C@@H]2CC[C@]2(C)[C@@H](O)CC[C@@H]12` [Panzem®, 2-methoxyestradiol], for which the “cytotoxicity (MTS assay)” value in data set [7] is reported as “do not reduce human coronary artery smooth muscle cell survival”. The “effect” value in [8] was “increases the percent of inhibition of rapamycin alone”. Further, the anti-proliferative activity entry in data set [8] (two percent fetal bovine serum) was “extremely effective inhibitor”.
With `CO[C@H]1C[C@@H]2CC[C@@H](C)[C@@](O)(O2)C(=O)C(=O)N2CCCC[C@H]2C(=O)O[C@H]([C@H](C)C[C@@H]2CC[C@@H](O)[C@H](OC)C2)CC(=O)[C@H](C)/C=C(\C)[C@@H](O)[C@@H](OC)C(=O)[C@H](C)C[C@H](C)/C=C/C=C/C=C/1C` [Rapamycin, rapamycin], the “concentration relative to the solubility of sirolimus in water” value in data set [3] (4 mg/ml formulation with PEG 200, ethanol and water) is recorded as “four hundred to about one thousand”. For the same molecule, the “in vivo release rate from coating” value in [5] (pig, in vivo) is “slower release rate than that of mycophenolic acid”.
`COc1cc([C@@H]2c3cc4c(cc3[C@@H](O[C@@H]3O[C@@H]5CO[C@@H](C)O[C@H]5[C@H](O)[C@H]3O)[C@H]3COC(=O)[C@H]23)OCO4)cc(OC)c1O` [etoposide]: the cytotoxicity result in data set [9] (concentrations up to ten micromolar) is reported as “non-cytotoxic”. The “effect” value in data set [8] is reported as “increases the percent inhibition of rapamycin alone”.
Turning to `COc1c(C)c2c(c(O)c1C/C=C(\C)CCC(=O)O)C(=O)OC2` [mycophenolic acid], the “effect” value in [6] is given as “potentiates the anti-proliferative activity of rapamycin”.
`CC[C@@]1(O)C(=O)OCc2c1cc1n(c2=O)Cc2cc3c(CN(C)C)c(O)ccc3nc2-1` [topotecan]: in [9] (concentrations up to one micromolar), the cytotoxicity entry was “non-cytotoxic”. The “effect” value in [8] is recorded as “increases the percent inhibition of rapamycin alone”.
In the case of `CC(/C=C/C(=O)NO)=C\[C@@H](C)C(=O)c1ccc(N(C)C)cc1` [trichostatin A], in [10], the “inhibition of human coronary artery smooth muscle cell proliferation” value is listed as “completely inhibit”. Besides, the IC50 in data set [10] (human coronary artery smooth muscle cells, read-out: anti-proliferative IC50) is roughly 6 nM. Moreover, the “anti-proliferative IC50's” value in [11] is on record as “low nM range”.
Take Tocopherol: the “protection of sirolimus” value in [1] (five days at 60° C.) is recorded as “significant protection”; in data set [1] (four weeks at 60° C., higher percent concentrations of antioxidant), “significant protection”.
